Assay results as given in US10774081B2, “Indolo substituted piperidine compound as estrogen receptor down-regulator” (LUOXIN PHARMACEUTICAL (SHANGHAI) CO., LTD., priority 2016, dated 2020).
pIC50: −log10 of the molar value.

How the values were obtained:
MCF-7 cells = assay: MCF-7 Cell Proliferation Inhibition Assay; type: cell-based; details: Homo sapiens, MCF7, 144 h, 6 days incubation, CellTiter-Glo, read-out: MCF-7 cell proliferation suppression
Experimental: (1) MCF-7 Cell Proliferation Inhibition Assay
Substrate RPMI 1640, fetal calf serum, reagent Promega CellTiter-Glo. MCF-7 cell lines were purchased from the European Cell Culture Collection (ECACC). Envision multi-lable analyzer (PerkinElmer).
MCF-7 cells were seeded in black 384-well plates, each of the well has 600 cells in […] of cell suspension. The cell plates were placed in a carbon dioxide incubator overnight.
The compound to be tested was diluted by 5 times for 10 concentrations with Epmotion, ie., dilution from 0.25 mmol to 1.28 nmol, and replicated. 198 μl Medium was added to the middle plate, and 2 μl of each well of the gradient diluted compound was transferred to the correspondent position on the middle plate, and then 20 μl of each well was transferred to the cell plate after mixing. Then the cell plate was incubated in a carbon dioxide incubator for 6 days.
25 μl Promega CellTiter-Glo reagent was added into each well of the cell plate, the cell plate was then incubated for 10 mins at room temperature to stabilize the luminescence signal. PerkinElmer Envision multi-label analyser was used for readings.
The original data is converted to the inhibition rate using the equation (Max−Ratio)/(Max−Min)*100%, the value of IC50 also can be obtained by the curve fitting with four parameters. (by 205 model in XLFIT5,iDBS)

[1] = in vivo; cited from earlier work
breast cancer = details: intramuscularly administrated; cited from earlier work
[2] = Tissue distribution evaluation of the drug (plasma and brain); type: in vivo; details: mouse, mice, dosage 10 mpk, 21th day after administration, tissue collected near Tmax, read-out: Ratio of drug concentration Brain tissue/plasma
Experimental: Experiment 2: Tissue Distribution Evaluation of the Drug
On the 21th day after administration, select randomly three mice from the drug-administrated group, and collect their plasma samples at different timing, the mice were euthanized near Tmax, and the tumor, brain and breast samples were collected.
The procedure of collecting the plasma and tissue samples are as follows:
Plasma: Blood (60 μl) was collected using a 1.5 ml EDTA-K2 anticoagulation tube, the plasma was obtained after immediately centrifugation at 7000 rpm, at 4° C. for 10 mins, then the plasma simple was stored at −80° C. for drug concentration determination.
Tissue: Brain was collected using a 5 ml cryotube and immediately quick froze in liquid nitrogen. After sampling, tissues were stored at −80° C. for drug concentration determination used for comparing the distribution.

estrogen receptor = target: T1, estrogen receptor (Homo sapiens, UniProt P03372); assay: ER Degradation in MCF-7 Cell; type: cell-based; details: MCF-7 cells, 20 hours incubation, ER antibody infrared fluorescence; read-out: MCF-7 ER degradation IC50 intracellular
T1 construct: endogenous in cells; host or cells: MCF-7 (ECACC)
T1 sequence (P03372 1-595): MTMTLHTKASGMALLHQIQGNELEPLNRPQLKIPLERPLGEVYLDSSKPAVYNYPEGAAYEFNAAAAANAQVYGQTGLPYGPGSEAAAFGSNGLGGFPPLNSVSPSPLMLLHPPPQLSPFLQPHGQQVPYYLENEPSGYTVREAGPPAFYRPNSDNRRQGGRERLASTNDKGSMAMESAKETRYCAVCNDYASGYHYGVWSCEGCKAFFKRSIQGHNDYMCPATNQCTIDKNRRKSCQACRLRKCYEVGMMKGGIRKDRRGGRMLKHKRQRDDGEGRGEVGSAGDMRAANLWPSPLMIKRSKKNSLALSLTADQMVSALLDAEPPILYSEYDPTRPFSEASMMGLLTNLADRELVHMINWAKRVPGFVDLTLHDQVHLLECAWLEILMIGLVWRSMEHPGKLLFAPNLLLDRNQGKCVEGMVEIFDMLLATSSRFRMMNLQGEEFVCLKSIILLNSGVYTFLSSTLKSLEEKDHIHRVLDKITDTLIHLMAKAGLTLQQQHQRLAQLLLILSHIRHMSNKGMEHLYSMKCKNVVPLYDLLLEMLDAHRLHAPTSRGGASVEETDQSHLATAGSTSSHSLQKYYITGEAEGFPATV
Experimental: Substrate RPMI 1640, fetal calf serum, PBS, 16% paraformaldehyde, Triton, confining liquid, estrogen receptor antibody, near0infrared goat anti-rabbit secondary antibody, DRAQ5 dye. The MCF-7 cell lines were purchased from the European Cell Culture Collection (ECACC). Odyssey infrared fluorescence scanning imaging system.
The MCF-7 cell was seeded in the black 384-well plate, each of the well has 3200 cells in 30 ml cell suspension. The cell plate were incubated in a carbon dioxide incubator for 4 days.
198 μl Medium was added into the middle plate and 2 μl each well of the gradient diluted compound was transferred to the correspond position on the middle plate, then the compound was transferred 20 μl per well after mixing to the cell plate. The cell plate was then incubated in a carbon dioxide incubator for 20 hours.
50 μl 8% Paraformaldehyde was added into each well of the cell plate, after incubation at room temperature for 30 min, the plate was washed by PBS twice, pat dried and 50 ul PBS containing 0.1% Triton was added, the plate was incubated at room temperature for 15 mins, then washed with PBS for 5 times, pat dried and 50 ul confining liquid was added and incubated at room temperature for 1 hour, pat dried and 50 ul confining liquid containing 0.1% estrogen receptor antibody was added and then left at 4° C. overnight. […]

Structure (SMILES) | pIC50 (MCF-7 cells) | oral bioavailability [1] | breast cancer patients showing clinical response (breast cancer) [%] | Kp [2] | DC50 (estrogen receptor) [nM]
C[C@]12CC[C@@H]3c4ccc(O)cc4C[C@@H](CCCCCCCCC[S+]([O-])CCCC(F)(F)C(F)(F)F)[C@H]3[C@@H]1CC[C@@H]2O (stereo partly shown) [Fulvestrant] | 8.75 | zero | 50 |  | 
C[C@@H]1Cc2c([nH]c3ccccc23)[C@@H](c2c(F)cc(OCCN3CC(CF)C3)cc2F)N1CC(C)(C)F [(II)] |  |  |  | 5.8 | 
CC1Cc2c([nH]c3ccccc23)C(c2c(F)cc(OCCN3CC(CC#N)C3)cc2F)N1CC(F)(F)F (stereo not shown) [(I)] | 8.93 |  |  | 13.1 | 1.13
